Assay results taken from publication PMC9021288 (Nature Communications, 2022).
“And” between values parts separate entries of the source, which are not always exact repeats. Identical values can stand only once.

Experiments:
[1] = Human hepatocyte clearance (relay assay); conditions: human
From the text: (§1) Briefly, cryopreserved human primary hepatocytes were thawed and cultured as described above.

[2] = test system: cryopreserved human primary hepatocytes; experiment: Human hepatocyte clearance (relay assay); conditions: 10 µM, single replicates
From the text: as §1

[3] = test system: P. falciparum Pf3D7^0087/N9; experiment: Single dose in vivo efficacy in humanized NSG mice; design: species or system Plasmodium falciparum
Description: The effect of pantothenamides on P. falciparum Pf3D7^0087/N9 [66] in vivo was assessed in female NSG mice (NODscidIL2Rγ^null) at the Swiss Tropical and Public Health Institute (Basel, Switzerland) as described previously (Supplementary Table 30)[15],[67]. Briefly, humanized mice were engrafted daily with human erythrocyte suspensions from days -11 to day 6. […] On day 4, groups of n = 2 mice were treated with a single dose pantothenamides or chloroquine (50 mg/kg) by oral gavage. […] Serial dilutions were prepared in the same solvent to concentrations 50 times higher than the corresponding CAL and QC concentrations. The concentrations were calculated under consideration of purity and salt factor. The spiking of the CAL and QC sample were performed at room temperature.

[4] = test system: P. falciparum NF54 rings and schizonts; experiment: Stage-specific activity on synchronized ring and schizont cultures; type: cell-based, Plasmodium falciparum
Description: Asynchronous NF54 parasites were cultured in a semi-automated shaker system[63] and synchronized once with 5% D-sorbitol. […] This yielded a parasite culture with ≥ 90% rings. To assess the schizont-stage activity of MMV693186, the initial synchronized culture was treated again with sorbitol 7 h later. Subsequently, parasites were cultured for another 17 h to yield a parasite culture of ≥ 90% early schizont stages. The ring and schizont synchronized cultures were diluted to 0.5% and then incubated with either 50 nM DHA or 50 nM MM693183 for 24 h in duplicate. Subsequently, the drug was washed out and parasites were cultured for another 24 h. Parasitemia was determined using Giemsa-stained thin smears at 0 h, 24 h, and 48 h after drug exposure.

AcAS (PF3D7_0627800) = experiment: Cellular thermal shift assay on parasite lysate; type: binding, Plasmodium falciparum; conditions: 1 µM
Description: A cellular thermal shift assay (CETSA) was performed on infected RBCs or parasite lysates as described previously.
For a CETSA on parasite lysates, synchronized trophozoite cultures (ACS11-tagged parasites) were treated with 0.1% saponin to lyse the RBCs, and washed three times in PBS. Subsequently, parasite pellets were resuspended in 1× lysis buffer and subjected to three flash-freeze-thaw cycles using liquid nitrogen, followed by mechanical shearing using a syringe with a 25 G and a 30 G needle. Samples were spun down at 18,000 g for 20 min at 4 °C. The supernatant was diluted to 2.1 mg/ml protein concentration, and 100 µl was added to each PCR tube containing 1 µl of the compound at a 100× concentration (final concentration of 1 µM). Samples were incubated for 30 min at room temperature, subjected to a thermal gradient for 3 min on a pre-heated PCR machine, followed by 4 °C for 3 min. Samples were spun down at 18,000 g for 20 min at 4 °C and the soluble fraction was flash-frozen in liquid nitrogen and stored at −80 °C.
Samples were loaded on an 8% SDS-Page gel (Genscript) with 4×10^6 infected RBCs or 50 µg protein for the parasite lysate approach. Proteins were transferred to a nitrocellulose membrane that was blocked with 5% skim milk (Sigma) in PBS overnight and incubated with rabbit antiserum against AcAS (1:1000) for 1 h. Subsequently, membranes were washed three times with PBS-Tween for 5 min, followed by incubation with secondary horseradish peroxide (HRP)-conjugated goat anti-rabbit antibodies (Dako P0448, 1:1000) for 1 h. Blots were then washed three times with PBS-Tween for 5 min and twice with PBS. Following a 5-min incubation with Clarity Max Western ECL Substrate (BioRad), protein blots were imaged using the ImageQuant LAS4000 (GE Healthcare). The band intensity was quantified using Fiji software.

[5] = Solubility in PBS, FaSSIF, FeSSIF; type: physicochemical; conditions: unknown samples, relative dilution factor 10000, duplicates
[6] = test system: P. falciparum NF54 asexual blood-stage parasites; experiment: 72-h asexual blood-stage replication assay (SYBR Green); type: cell-based, Plasmodium falciparum; conditions: asexual blood stages NF54 parasites; read-out: IC50
Description: Replication assays were performed using a SYBR Green method as described previously. Briefly, asynchronous parasites were diluted to 0.83% parasitemia, 3% hematocrit in 30 µl medium, and added to 30 µl of diluted compounds in medium (0.1% DMSO final concentration) in black 384-wells plates. After a 72-h incubation, 30 µl of SYBR Green diluted in lysis buffer was added according to the manufacturer’s protocol (Life Technologies). Fluorescence intensity was measured on a BioTek Synergy 2 Plate Reader after 1-h incubation and was normalized to a DMSO control (100% growth) and DHA- or epoxomicin-treatment (no growth). […] Parasite survival was assessed by flow cytometry on an Accuri C6 (BD Biosciences) with BD C6 Plus software using SYBR Green and MitoTracker Deep Red FM (Life Technologies) as nuclear stain and vital dye, respectively, and data were analyzed using FlowJo (10.5.0). […] Luminescence was measured after 72 h using the Renilla-Glo(R) Luciferase Assay System (Promega E2750) and the GlomAX® Discover Multimode Microplate Reader (Promega). The luminescence values were normalized to DMSO vehicle (100% growth) and 200 nM chloroquine-treated (no growth) samples as controls.
Dose-response assays were analyzed by a nonlinear regression using a four-parameter model and the least squares method to find the best fit. One-way Analysis of variance (ANOVA) was performed using the Bonferroni’s Multiple Comparison Test. For the majority of experiments, 2-4 biological replicates were performed. Typically, 2 replicates were performed for screening activities, and a minimum of 3 replicates are performed for other experiments unless stated otherwise.

[7] = test system: human G6PD-A-deficient RBCs; experiment: Hemolytic toxicity in NSG mice engrafted with G6PD-deficient human RBCs; conditions: Primaquine group
Description: Hemolytic toxicity was determined in female NSG mice (Jackson Laboratories) using erythrocytes from a G6PD-A-deficient blood donor (0.4 u/g hemoglobin).

P. falciparum 3D7 = experiment: Parasite reduction rate (PRR) in vitro killing rate assay; type: cell-based, Plasmodium falciparum
Description: The antimalarial killing rate was determined by GlaxoSmithKline (GSK, Tres Cantos, Madrid, Spain) as described previously. […] The number of viable parasites was determined on day 21 and 28 by counting the wells with parasite growth.

HepG2 cells = experiment: HepG2 viability (resazurin); conditions: human, 10 µM
Description: Safety studies were performed by commercial services using their standard protocols. […] Genotoxicity was investigated using the Ames test (Bacterial Reverse Mutation Assay) (Covance Laboratories Ltd, North Yorkshire, England). In vitro mammalian cell micronucleus screening assay was studied in human peripheral blood lymphocytes (BioReliance Corporation, Rockville, USA). Cardiotoxicity was determined against the hERG channel in an automated patch clamp assay using the Qpatch or against the hNaV 1.5, hKV 1.5 and hCaV 1.2 using a manual patch-clamp technique (Metrion Biosciences, Cambridge, UK). Cytotoxicity in human and rat primary hepatocytes was assessed using the CellTiter-Blue assay performed by commercial services (KaLy-Cell). The viability of HepG2 cells was monitored through the addition of 1 mM resazurin. Following 6 h incubation, the relative amount of reduced resazurin was detected in a fluorimeter and compared to the assay controls (vehicle: 0.1% DMSO and positive control: 10 µM puromycin).

CCOc1ccc2ccc(=O)oc2c1 [7-Ethoxycoumarin]
remaining at 0 h, 10 µM ([1]; % Remaining, 10 µM, hepatocyte donor HC02, 0 h, single replicates): 100%
remaining at 6 h, 10 µM ([1]; % Remaining, 10 µM, hepatocyte donor HC02, 6 h, single replicates): 2.2%
remaining at 0 h, 10 µM ([1]; % Remaining, 10 µM, hepatocyte donor HC06, 0 h, single replicates): 100%
remaining at 3 h, 10 µM ([1]; % Remaining, 10 µM, hepatocyte donor HC06, 3 h, single replicates): 80.9%
remaining at 6 h, 10 µM ([1]; % Remaining, 10 µM, hepatocyte donor HC06, 6 h, single replicates): 56.3%
remaining at 0 h, 10 µM ([1]; % Remaining, 10 µM, hepatocyte donor HC425, 0 h, single replicates): 100%
remaining at 6 h, 10 µM ([1]; % Remaining, 10 µM, hepatocyte donor HC425, 6 h, single replicates): 72.1%
remaining at 24 h, 10 µM ([1]; % Remaining, 10 µM, hepatocyte donor HC425, 24 h, single replicates): 33.1%
remaining at 0 h, 10 µM ([1]; % Remaining, 10 µM, hepatocyte donor HC1010, 0 h, single replicates): 100%
remaining at 3 h, 10 µM ([1]; % Remaining, 10 µM, hepatocyte donor HC1010, 3 h, single replicates): 46.7%
remaining at 6 h, 10 µM ([1]; % Remaining, 10 µM, hepatocyte donor HC1010, 6 h, single replicates): 29.5%
remaining at 24 h, 10 µM ([1]; % Remaining, 10 µM, hepatocyte donor HC1010, 24 h, single replicates): 2%
remaining at 48 h, 10 µM ([1]; cryopreserved human primary hepatocytes (relay assay), % Remaining, 10 µM, hepatocyte donor HC425, 48 h, single replicates): 25.4%
remaining at 72 h, 10 µM ([1]; cryopreserved human primary hepatocytes (relay assay), % Remaining, 10 µM, hepatocyte donor HC425, 72 h, single replicates): 8.2%
hepatocyte CLint ([1]; cryopreserved human primary hepatocytes (relay assay), CLint, donor HC02): 21.2 µL/min/1e6 cells
hepatocyte CLint ([1]; cryopreserved human primary hepatocytes (relay assay), CLint, donor HC06): 3.14 µL/min/1e6 cells
hepatocyte CLint at 10 µM ([1]; cryopreserved human primary hepatocytes (relay assay), CLint, donor HC425): 1.19 µL/min/1e6 cells
hepatocyte CLint ([1]; cryopreserved human primary hepatocytes (relay assay), CLint, donor HC1010): 6.28 µL/min/1e6 cells
% Remaining ([2]; hepatocyte donor HC06, 3 h): 76.9%
% Remaining ([2]; hepatocyte donor HC06, 6 h): 57.5%
% Remaining ([2]; hepatocyte donor HC425, 6 h): 78.5%
% Remaining ([2]; hepatocyte donor HC425, 24 h): 39.0%
% Remaining ([2]; hepatocyte donor HC425, 48 h): 22.9%
% Remaining ([2]; hepatocyte donor HC425, 72 h): 4.8%
% Remaining ([2]; hepatocyte donor HC1010, 3 h): 50.4%
% Remaining ([2]; hepatocyte donor HC1010, 6 h): 26.9%

CCN(CC)CCCC(C)Nc1ccnc2cc(Cl)ccc12 (stereo not drawn) [CQ, chloroquine, reference compound]
Parasitemia ([3]; day 5 post infection, 50 mg/kg p.o. on day 4, per mouse, 50 mg/kg): 0.12 and 0.07
Parasitemia ([3]; day 6 post infection, per mouse): 0 and 0.01
Parasitemia ([3]; day 7 post infection, per mouse): 0

C[C@H]1[C@@H](O)O[C@@H]2O[C@@]3(C)CC[C@H]4[C@H](C)CC[C@@H]1[C@@]24OO3 [DHA, dihydroartemisinin]
Parasitemia, rings culture ([4]; Time (h) 0): 0.4
Parasitemia, rings culture ([4]; Time (h) 24): 0
Parasitemia, rings culture ([4]; Time (h) 48): 0
Parasitemia, schizonts culture ([4]; Time (h) 0): 0.2
Parasitemia, schizonts culture ([4]; Time (h) 24): 0
Parasitemia, schizonts culture ([4]; Time (h) 48): 0
AcAS band intensity normalized to DMSO at 37 °C (AcAS (PF3D7_0627800); 37 °C): 142.951
AcAS band intensity normalized to DMSO at 37 °C (AcAS (PF3D7_0627800); 42 °C): 180.287
AcAS band intensity normalized to DMSO at 37 °C (AcAS (PF3D7_0627800); 47 °C): 80.1639
AcAS band intensity normalized to DMSO at 37 °C (AcAS (PF3D7_0627800); 52 °C): 24.4159

C[C@@H](CNC(=O)[C@H](O)C(C)(C)CO)NC(=O)c1cc(F)c(F)cc1F [MMV693183-06]
Calculated concentration (solubility sample) ([5]; FaSSIF): 9179.95 ppm and 9316.55 ppm
Calculated concentration (solubility sample) ([5]; FeSSIF): 9110.79 ppm and 8990.98 ppm
Calculated concentration (solubility sample) ([5]; PBS): 6813.58 ppm and 7461.45 ppm

C[C@@H](CNC(=O)[C@H](O)C(C)(C)CO)NC(=O)c1ccc(F)c(F)c1 [MMV1576731]
IC50 [6]: 4.6 nM

COc1cc(NC(C)CCCN)c2ncccc2c1 (stereo not drawn) [Primaquine]
Human RBCs ([7]; day 0, individual mice): 74.3% and 71.3% and 74.2% and 65%
Reticulocytes ([7]; day 0, individual mice): 0.41% and 0.56% and 0.49% and 0.54%
Human RBCs ([7]; day 4, individual mice): 54.6% and 45.9% and 58.7% and 49.1%
Reticulocytes ([7]; day 4, individual mice): 5.2% and 2.88% and 7.64% and 5.35%
Human RBCs ([7]; day 7, individual mice): 13.5% and 5.35% and 9.52% and 4.33%
Reticulocytes ([7]; day 7, individual mice): 4.47% and 5.69% and 5.07% and 8.31%
Hematocrit ([7]; individual mice): 31.37% and 28.81% and 29.69% and 29.51%
Spleen weight ([7]; individual mice): 1.219 % of body weight and 1.099 % of body weight and 1.08 % of body weight and 1.161 % of body weight

CCc1nc(N)nc(N)c1-c1ccc(Cl)cc1 [Pyrimethamine]
Average (log parasites +1) (P. falciparum 3D7; 24 h): 4.95
Average (log parasites +1) (P. falciparum 3D7; 48 h): 1.57
Average (log parasites +1) (P. falciparum 3D7; 72h): 0.53
Average (log parasites +1) (P. falciparum 3D7; 96h): 0.00
log (parasites +1) (P. falciparum 3D7; 96h): 0
parasites (P. falciparum 3D7; 96h): 0
Average (log parasites +1) (P. falciparum 3D7; 120h): 0.00
log (parasites +1) (P. falciparum 3D7; 120h): 0
parasites (P. falciparum 3D7; 120h): 0

CCCCNC(=O)NS(=O)(=O)c1ccc(C)cc1 [Tolbutamide]
remaining at 0 h, 10 µM ([1]; hepatocytes, % Remaining): 100%
remaining at 3 h, 10 µM ([1]; hepatocytes, % Remaining): 98.8%

COc1ccc(C[C@H](N)C(=O)N[C@H]2[C@@H](O)[C@H](n3cnc4c(N(C)C)ncnc43)O[C@@H]2CO)cc1 [puromycin]
HepG2 viability assay, raw signal, MIN average (HepG2 cells): 764
